Results taken from US9512180B2, “Compstatin analogs” (THE REGENTS OF THE UNIVERSITY OF CALIFORNIA, priority 2012, dated 2016).
Bridge positions count the residues as written; N and C are the ends. Peptide text beside a SMILES is read from it.

Assays:
[1] = test system: complement activation; conditions: alternative pathway-mediated erythrocyte lysis; cited from earlier work
[2] = test system: complement system; assay: Preliminary ELISA-based complement system inhibition assays, human serum; type: biochemical; conditions: preliminary data
From the text: For some of the peptides studied here, W1, W13, R1, and S-1S0, there is experimental evidence for inhibitory activity against hC3. […] The structural rationale was that the positively charged backbone amino group was disrupting the hydrophobic cluster at the termini (spanning residues 11-C2-V3-V4/C12/T13 of native compstatin), which was deemed necessary for binding and activity before the availability of the structure of the C3c-W4A9 complex, and that upon removal of the positive charge by acetylation the hydrophobic cluster was fortified and contributed to the 3-fold increase in activity. […] The peptide with the diserine extension is expected to be active, as the diserine was present at the N-terminus of the original 32-amino acid peptide that was identified in the phage-display and a subsequent study.

Structure (SMILES)	IC50 [1]	inhibitory activity in human serum (in words) [2]
CC[C@H](C)[C@H](N)C(=O)N[C@H]1CSSC[C@@H](C(=O)N[C@H](C(N)=O)[C@@H](C)O)NC(=O)[C@H](CCCN=C(N)N)NC(=O)[C@H](Cc2cnc[nH]2)NC(=O)[C@H](Cc2cnc[nH]2)NC(=O)CNC(=O)[C@H](Cc2c[nH]c3ccccc23)NC(=O)[C@H](CC(=O)O)NC(=O)[C@H](CCC(N)=O)NC(=O)[C@H](C(C)C)NC(=O)[C@H](C(C)C)NC1=O [Parent, ICV VQDWGH HRCT-NH2, reference compound]	12 µM	
CC(=O)N[C@@H](CCCNC(=N)N)C(=O)N[C@H]1CSSC[C@@H](C(=O)N[C@H](C(N)=O)[C@@H](C)O)NC(=O)[C@H](CCCNC(=N)N)NC(=O)[C@H](Cc2c[nH]cn2)NC(=O)[C@H](C)NC(=O)CNC(=O)[C@H](Cc2c[nH]c3ccccc23)NC(=O)[C@H](CC(=O)O)NC(=O)[C@H](CCC(N)=O)NC(=O)[C@H](Cc2c[nH]c3ccccc23)NC(=O)[C@H](C(C)C)NC1=O [Peptide I, Ac- RCV WQDWGA HRCT-NH2] (Ac-RCVWQDWGAHRCT-NH2; disulfide 2-12)		higher than those of native compstatin and slightly lower than those of the W4A9 analog
